Assay results reported in ChEMBL document CHEMBL2150935, “Synthesis, biological evaluation and chemometric analysis of indazole derivatives. 1,2-Disubstituted 5-nitroindazolinones, new prototypes of antichagasic drug” (Eur J Med Chem, 2012).

Key:
Trypanosoma cruzi [1] = assay: Growth inhibition of epimastigote form of Trypanosoma cruzi CL-B5 at 128 uM after 72 hrs by lacZ reporter gene assay; type: functional; conditions: CL-B5, 72 h, read-out: GI
[2] = Growth inhibition of mouse J774 cells at 256 uM after 24 hrs by resazurin reduction assay; type: cell-based; conditions: read-out: GI
Trypanosoma cruzi [3] = assay: Growth inhibition of epimastigote form of Trypanosoma cruzi CL-B5 at 256 uM after 72 hrs by lacZ reporter gene assay; type: functional; conditions: CL-B5, 72 h, read-out: GI
[4] = Growth inhibition of mouse J774 cells at 128 uM after 24 hrs by resazurin reduction assay; type: cell-based; conditions: read-out: GI
Trypanosoma cruzi [5] = assay: Growth inhibition of epimastigote form of Trypanosoma cruzi CL-B5 at 64 uM after 72 hrs by lacZ reporter gene assay; type: functional; conditions: CL-B5, 72 h, read-out: GI
[6] = Growth inhibition of mouse J774 cells at 64 uM after 24 hrs by resazurin reduction assay; type: cell-based; conditions: read-out: GI
Trypanosoma cruzi [7] = assay: Growth inhibition of epimastigote form of Trypanosoma cruzi CL-B5 at 32 uM after 72 hrs by lacZ reporter gene assay; type: functional; conditions: CL-B5, 72 h, read-out: GI
[8] = Growth inhibition of mouse J774 cells at 32 uM after 24 hrs by resazurin reduction assay; type: cell-based; conditions: read-out: GI
Trypanosoma cruzi [9] = assay: Growth inhibition of epimastigote form of Trypanosoma cruzi CL-B5 at 16 uM after 72 hrs by lacZ reporter gene assay; type: functional; conditions: CL-B5, 72 h, read-out: GI
[10] = Growth inhibition of mouse J774 cells at 16 uM after 24 hrs by resazurin reduction assay; type: cell-based; conditions: read-out: GI
Trypanosoma cruzi [11] = assay: Growth inhibition of epimastigote form of Trypanosoma cruzi CL-B5 at 8 uM after 72 hrs by lacZ reporter gene assay; type: functional; conditions: CL-B5, 72 h, read-out: GI
[12] = Growth inhibition of mouse J774 cells at 8 uM after 24 hrs by resazurin reduction assay; type: cell-based; conditions: read-out: GI
Trypanosoma cruzi [13] = assay: Growth inhibition of epimastigote form of Trypanosoma cruzi CL-B5 at 5 uM after 72 hrs by lacZ reporter gene assay; type: functional; conditions: CL-B5, 72 h, read-out: GI
[14] = Growth inhibition of mouse J774 cells at 5 uM after 24 hrs by resazurin reduction assay; type: cell-based; conditions: read-out: GI
Trypanosoma cruzi [15] = assay: Growth inhibition of epimastigote form of Trypanosoma cruzi CL-B5 at 2.5 uM after 72 hrs by lacZ reporter gene assay; type: functional; conditions: CL-B5, 72 h, read-out: GI
[16] = Growth inhibition of mouse J774 cells at 2.5 uM after 24 hrs by resazurin reduction assay; type: cell-based; conditions: read-out: GI
Trypanosoma cruzi [17] = assay: Growth inhibition of epimastigote form of Trypanosoma cruzi CL-B5 at 1.25 uM after 72 hrs by lacZ reporter gene assay; type: functional; conditions: CL-B5, 72 h, read-out: GI
[18] = Growth inhibition of mouse J774 cells at 1.25 uM after 24 hrs by resazurin reduction assay; type: cell-based; conditions: read-out: GI
Trypanosoma cruzi [19] = assay: Growth inhibition of epimastigote form of Trypanosoma cruzi CL-B5 at 0.625 uM after 72 hrs by lacZ reporter gene assay; type: functional; conditions: CL-B5, 72 h, read-out: GI
[20] = Growth inhibition of mouse J774 cells at 0.625 uM after 24 hrs by resazurin reduction assay; type: cell-based; conditions: read-out: GI
Trypanosoma cruzi [21] = assay: Growth inhibition of epimastigote form of Trypanosoma cruzi CL-B5 after 72 hrs by lacZ reporter gene assay; type: functional, organism-based; conditions: CL-B5, 72 h
[22] = Growth inhibition of mouse J774 cells at 4 uM after 24 hrs by resazurin reduction assay; type: cell-based; conditions: read-out: GI
Trypanosoma cruzi [23] = assay: Growth inhibition of epimastigote form of Trypanosoma cruzi CL-B5 at 2 uM after 72 hrs by lacZ reporter gene assay; type: functional; conditions: CL-B5, 72 h, read-out: GI
[24] = Growth inhibition of mouse J774 cells at 2 uM after 24 hrs by resazurin reduction assay; type: cell-based; conditions: read-out: GI
Trypanosoma cruzi [25] = assay: Growth inhibition of epimastigote form of Trypanosoma cruzi CL-B5 at 1 uM after 72 hrs by lacZ reporter gene assay; type: functional; conditions: CL-B5, 72 h, read-out: GI
[26] = Growth inhibition of mouse J774 cells at 1 uM after 24 hrs by resazurin reduction assay; type: cell-based; conditions: read-out: GI
Trypanosoma cruzi [27] = assay: Growth inhibition of epimastigote form of Trypanosoma cruzi CL-B5 at 4 uM after 72 hrs by lacZ reporter gene assay; type: functional; conditions: CL-B5, 72 h, read-out: GI

Structure (SMILES)	inhibition of growth at 128 µM (Trypanosoma cruzi [1])	inhibition at 24 h, 256 µM [2]	inhibition of growth at 256 µM (Trypanosoma cruzi [3])	inhibition at 24 h, 128 µM [4]	inhibition of growth at 64 µM (Trypanosoma cruzi [5])	inhibition at 24 h, 64 µM [6]	inhibition of growth at 32 µM (Trypanosoma cruzi [7])	inhibition at 24 h, 32 µM [8]	inhibition of growth at 16 µM (Trypanosoma cruzi [9])	inhibition at 24 h, 16 µM [10]	inhibition of growth at 8 µM (Trypanosoma cruzi [11])	inhibition at 24 h, 8 µM [12]	inhibition of growth at 5 µM (Trypanosoma cruzi [13])	inhibition at 24 h, 5 µM [14]	inhibition of growth at 2.5 µM (Trypanosoma cruzi [15])	inhibition at 24 h, 2.5 µM [16]	inhibition of growth at 1.25 µM (Trypanosoma cruzi [17])	inhibition at 24 h, 1.25 µM [18]	inhibition of growth at 0.625 µM (Trypanosoma cruzi [19])	IC50 (Trypanosoma cruzi [21])	also measured
CCCCn1c2ccc([N+](=O)[O-])cc2c(=O)n1Cc1ccccc1	88.3%	81.6%	84%	67.5%	82.8%	33.3%	100%	27.1%	100%	7.92%	93%	7.65%	61.7%	2.36%	58.2%	1.92%	55.9%	5.37%	49.7%	1170 nM	inhibition at 24 h, 0.625 µM [20]: 0.14%
CC(C)n1c2ccc([N+](=O)[O-])cc2c(=O)n1Cc1ccccc1	88.3%	0%	90.4%	0%	87.6%	14.5%	100%	0%	97.6%	0%	80.3%	10.3%								2390 nM	inhibition at 24 h, 4 µM [22]: 65.2%; inhibition of growth at 2 µM (Trypanosoma cruzi [23]): 37.4%; inhibition at 24 h, 2 µM [24]: 8.76%; inhibition of growth at 1 µM (Trypanosoma cruzi [25]): 28%; inhibition at 24 h, 1 µM [26]: 5.87%; inhibition of growth at 4 µM (Trypanosoma cruzi [27]): 4.11%
CCCn1c2ccc([N+](=O)[O-])cc2c(=O)n1Cc1ccccc1	92.8%	0%	94.8%	0%	92.7%	0%	100%	0%	100%	0%	100%	0%	61.5%	0.64%	59.8%	0.85%	59.5%	0.14%	56.2%	930 nM	inhibition at 24 h, 0.625 µM [20]: 4.18%
